Test results as given in PubChem BioAssay AID330 (DTP/NCI, 2004).
Where “and” joins values, the source holds several entries; their conditions need not be identical. Equal values may be shown once. Inconclusive results and toxic doses are left out.

Test system: P388 leukemia ip, CD2F1 mice, survival T/C
Test: NCI In Vivo Anticancer Drug Screen. Data for tumor model P388 Leukemia (intraperitoneal) in CD2F1 (CDF1) mice
Details: endpoint: median survival time, higher = longer survival
Summary of the method: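 Mice carrying the transplanted tumor received test compound or vehicle. Survival was recorded in each group, and the value is the treated-group measurement divided by that of the vehicle-treated control group.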

[1] = dose: 20.0 mg/kg/injection, schedule: Q01DX009 (ip), vehicle: water
[2] = dose: 50.0 mg/kg/injection, schedule: Q01DX005 (ip), vehicle: Klucel (hydroxypropylcellulose) (HPC)
[3] = dose: 100.0 mg/kg/injection, schedule: Q01DX005 (ip), vehicle: Klucel (hydroxypropylcellulose) (HPC)
[4] = dose: 50.0 mg/kg/injection, schedule: Q01DX005 (ip), vehicle: saline with Tween-80
[5] = dose: 100.0 mg/kg/injection, schedule: Q01DX005 (ip), vehicle: saline with Tween-80
[6] = dose: 200.0 mg/kg/injection, schedule: Q01DX005 (ip), vehicle: saline with Tween-80
[7] = dose: 50.0 mg/kg/injection, schedule: Q01DX005 (ip), vehicle: saline

COc1ccc(C[C@H](N)C(=O)NC2C(CO)OC(n3cnc4c(N(C)C)ncnc43)C2O)cc1 (stereo not given in full)
T/C (dose: 4.0 mg/kg/injection, schedule: Q03HX024 (ip), vehicle: saline): 115 % of control | T/C (dose: 8.0 mg/kg/injection, schedule: Q01DX005 (ip), vehicle: saline): 112 % of control | T/C (dose: 8.0 mg/kg/injection, schedule: Q01DX009 (ip), vehicle: saline): 107 % of control | T/C (dose: 16.0 mg/kg/injection, schedule: Q01DX005 (ip), vehicle: saline): 106 % of control | T/C (dose: 16.0 mg/kg/injection, schedule: Q01DX009 (ip), vehicle: saline): 100 % of control | T/C (dose: 16.0 mg/kg/injection, schedule: Q03HX024 (ip), vehicle: saline): 92 % of control | T/C [1]: 92 % of control | T/C (dose: 22.0 mg/kg/injection, schedule: Q01DX009 (ip), vehicle: saline with Tween-80): 120 % of control | T/C (dose: 32.0 mg/kg/injection, schedule: Q01DX005 (ip), vehicle: saline): 106 % of control | T/C (dose: 32.0 mg/kg/injection, schedule: Q01DX009 (ip), vehicle: saline): 109 % of control | T/C (dose: 32.0 mg/kg/injection, schedule: Q04DX003 (ip), vehicle: saline): 107 % of control | T/C (dose: 33.0 mg/kg/injection, schedule: Q01DX009 (ip), vehicle: saline with Tween-80): 122 % of control | T/C (dose: 40.0 mg/kg/injection, schedule: Q01DX009 (ip), vehicle: water): 92 % of control | T/C (dose: 60.0 mg/kg/injection, schedule: Q01DX009 (ip), vehicle: water): 90 % of control | T/C (dose: 64.0 mg/kg/injection, schedule: Q01DX001 (ip), vehicle: saline): 101 % of control and 92 % of control | T/C (dose: 64.0 mg/kg/injection, schedule: Q01DX005 (ip), vehicle: saline): 114 % of control | T/C (dose: 64.0 mg/kg/injection, schedule: Q01DX009 (ip), vehicle: saline): 109 % of control | T/C (dose: 64.0 mg/kg/injection, schedule: Q04DX003 (ip), vehicle: saline): 111 % of control | T/C (dose: 80.0 mg/kg/injection, schedule: Q01DX009 (ip), vehicle: water): 92 % of control | T/C (dose: 100.0 mg/kg/injection, schedule: Q01DX009 (ip), vehicle: water): 95 % of control | T/C (dose: 100.0 mg/kg/injection, schedule: Q04DX003 (ip), vehicle: saline with Tween-80): 104 % of control | T/C (dose: 128.0 mg/kg/injection, schedule: Q01DX001 (ip), vehicle: saline): 118 % of control and 97 % of control | T/C (dose: 128.0 mg/kg/injection, schedule: Q01DX005 (ip), vehicle: saline): 124 % of control | T/C (dose: 128.0 mg/kg/injection, schedule: Q01DX009 (ip), vehicle: saline): 118 % of control | T/C (dose: 128.0 mg/kg/injection, schedule: Q04DX003 (ip), vehicle: saline): 100 % of control | T/C (dose: 150.0 mg/kg/injection, schedule: Q01DX009 (ip), vehicle: saline sonified): 150 % of control | T/C (dose: 200.0 mg/kg/injection, schedule: Q04DX003 (ip), vehicle: saline with Tween-80): 95 % of control | T/C (dose: 256.0 mg/kg/injection, schedule: Q01DX001 (ip), vehicle: saline): 111 % of control | T/C (dose: 256.0 mg/kg/injection, schedule: Q04DX003 (ip), vehicle: saline): 90 % of control | T/C (dose: 400.0 mg/kg/injection, schedule: Q04DX003 (ip), vehicle: saline with Tween-80): 95 % of control

CSc1nnc(CCC(=O)Nc2ccc(Cl)cc2Cl)o1
T/C (dose: 60.0 mg/kg/injection, schedule: Q01DX005 (ip), vehicle: saline with Tween-80): 106 % of control | T/C (dose: 120.0 mg/kg/injection, schedule: Q01DX005 (ip), vehicle: saline with Tween-80): 108 % of control

CCC(c1ccc(OCC(=O)OCCNCCCl)cc1)C(CC)c1ccc(OCC(=O)OCCNCCCl)cc1 (stereo not given)
T/C (dose: 25.0 mg/kg/injection, schedule: Q04DX002 (ip), vehicle: saline): 101 % of control | T/C (dose: 50.0 mg/kg/injection, schedule: Q04DX002 (ip), vehicle: saline): 97 % of control | T/C (dose: 100.0 mg/kg/injection, schedule: Q04DX002 (ip), vehicle: saline): 101 % of control | T/C (dose: 100.0 mg/kg/injection, schedule: Q04DX002 (ip), vehicle: suspension in saline): 97 % of control | T/C (dose: 200.0 mg/kg/injection, schedule: Q04DX002 (ip), vehicle: suspension in saline): 87 % of control

CN(CC(=O)O)c1ccc(/C=C/c2ccnc3ccccc23)cc1
T/C (dose: 50.0 mg/kg/injection, schedule: Q01DX001 (ip), vehicle: saline with Tween-80): 100 % of control | T/C (dose: 100.0 mg/kg/injection, schedule: Q01DX001 (ip), vehicle: saline with Tween-80): 97 % of control | T/C (dose: 200.0 mg/kg/injection, schedule: Q01DX001 (ip), vehicle: saline with Tween-80): 103 % of control | T/C (dose: 400.0 mg/kg/injection, schedule: Q01DX001 (ip), vehicle: saline with Tween-80): 101 % of control

O=C1C(c2nc3ccccc3[nH]2)=C(O)c2ccccc21
T/C (dose: 60.0 mg/kg/injection, schedule: Q01DX005 (ip), vehicle: Klucel (hydroxypropylcellulose) (HPC)): 87 % of control | T/C (dose: 120.0 mg/kg/injection, schedule: Q01DX005 (ip), vehicle: Klucel (hydroxypropylcellulose) (HPC)): 87 % of control | T/C (dose: 240.0 mg/kg/injection, schedule: Q01DX005 (ip), vehicle: Klucel (hydroxypropylcellulose) (HPC)): 87 % of control

O=C(O)C(CO)Nc1ncnc2nc[nH]c12 (stereo not given)
T/C [2]: 106 % of control | T/C [3]: 109 % of control | T/C (dose: 200.0 mg/kg/injection, schedule: Q01DX005 (ip), vehicle: Klucel (hydroxypropylcellulose) (HPC)): 109 % of control

NC(=O)c1oc([N+](=O)[O-])c(-c2ccccc2)c1-c1ccccc1
T/C [4]: 99 % of control | T/C [5]: 102 % of control | T/C [6]: 93 % of control

CCC(CC)(C(=O)Nc1ccc2[nH]c3ccccc3c(=O)c2c1)C(=O)Nc1ccc2[nH]c3ccccc3c(=O)c2c1
T/C [4]: 97 % of control | T/C [5]: 105 % of control | T/C [6]: 99 % of control

O=C(N=c1nc2ccccn2s1)c1ccccc1
T/C (dose: 50.0 mg/kg/injection, schedule: Q01DX009 (ip), vehicle: saline with Tween-80): 100 % of control | T/C (dose: 100.0 mg/kg/injection, schedule: Q01DX009 (ip), vehicle: saline with Tween-80): 98 % of control | T/C (dose: 200.0 mg/kg/injection, schedule: Q01DX009 (ip), vehicle: saline with Tween-80): 104 % of control

CN(CCCCC(O)CN(C)C(=S)S)C(=S)S (stereo not given)
T/C [7]: 98 % of control | T/C (dose: 100.0 mg/kg/injection, schedule: Q01DX005 (ip), vehicle: saline): 102 % of control | T/C (dose: 200.0 mg/kg/injection, schedule: Q01DX005 (ip), vehicle: saline): 98 % of control

CC(=O)C[n+]1ccccc1Oc1ccccc1
T/C (dose: 25.0 mg/kg/injection, schedule: Q01DX005 (ip), vehicle: saline): 93 % of control | T/C [7]: 96 % of control

Cc1ccc(C2(COC(=O)c3ccccc3)CO2)c(OC(=O)C(C)C)c1 (stereo not given)
T/C (dose: 12.5 mg/kg/injection, schedule: Q01DX009 (ip), vehicle: Klucel (hydroxypropylcellulose) (HPC)): 99 % of control | T/C (dose: 25.0 mg/kg/injection, schedule: Q01DX009 (ip), vehicle: Klucel (hydroxypropylcellulose) (HPC)): 95 % of control | T/C (dose: 50.0 mg/kg/injection, schedule: Q01DX009 (ip), vehicle: Klucel (hydroxypropylcellulose) (HPC)): 107 % of control | T/C (dose: 100.0 mg/kg/injection, schedule: Q01DX009 (ip), vehicle: Klucel (hydroxypropylcellulose) (HPC)): 105 % of control

C[Si](C)(C)C1OC1[Si](C)(C)C (stereo not given)
T/C (dose: 50.0 mg/kg/injection, schedule: Q04DX002 (ip), vehicle: other): 103 % of control | T/C (dose: 100.0 mg/kg/injection, schedule: Q04DX002 (ip), vehicle: other): 105 % of control | T/C (dose: 200.0 mg/kg/injection, schedule: Q04DX002 (ip), vehicle: other): 108 % of control

O=C1NC(=O)N(C(F)(F)F)C(F)(F)N1C(F)(F)F
T/C [2]: 107 % of control | T/C [3]: 107 % of control

CN(C)CNC(=O)c1ccccc1
T/C (dose: 1.25 mg/kg/injection, schedule: Q01DX009 (ip), vehicle: water): 99 % of control | T/C (dose: 2.5 mg/kg/injection, schedule: Q01DX009 (ip), vehicle: water): 121 % of control | T/C (dose: 5.0 mg/kg/injection, schedule: Q01DX009 (ip), vehicle: water): 99 % of control | T/C (dose: 10.0 mg/kg/injection, schedule: Q01DX009 (ip), vehicle: water): 100 % of control | T/C [1]: 99 % of control

C/C(=N\NC(=S)N1CCCCCC1)c1nccnc1C
T/C (dose: 25.0 mg/kg/injection, schedule: Q01DX005 (ip), vehicle: Klucel (hydroxypropylcellulose) (HPC)): 112 % of control | T/C [2]: 122 % of control

CC1(C)CC(=O)C2=C(C1)Oc1c(Cl)cc(Cl)cc1C2
T/C (dose: 50.0 mg/kg/injection, schedule: Q01DX009 (ip), vehicle: saline): 108 % of control | T/C (dose: 100.0 mg/kg/injection, schedule: Q01DX009 (ip), vehicle: saline): 98 % of control | T/C (dose: 200.0 mg/kg/injection, schedule: Q01DX009 (ip), vehicle: saline): 92 % of control
